Laboratory results reported in paper PMC11491004, “CHF6523 data suggest that the phosphoinositide 3-kinase delta isoform is not a suitable target for the management of COPD” (Respiratory Research, 2024).

Columns and labels:
[1] = Forced oscillation and slow vital capacity manoeuvres; assay type: in vivo, human; details: Day 28
Experimental: All assessment timings were based on the morning dose. Pre-dose on Days 1 and 28 of each treatment period, blood samples were taken for pharmacokinetic analyses, followed by forced oscillation (including slow vital capacity manoeuvres for inspiratory capacity [IC] and vital capacity [VC]), spirometry (forced expiratory volume in 1 s [FEV1] and forced vital capacity [FVC]), and the COPD Assessment Test (CAT). Blood samples were also taken up to 12 h post-dose on Days 1 and 28 for pharmacokinetic analyses, with blood samples for biomarker assessment pre-dose on Day 1 and 2 h post-dose on Day 28, and spirometry pre-dose on Days 20 and 24. Sputum was induced prior to each treatment period for baseline determination of biomarkers, and post-dose on Day 20 for collection of phosphatidylinositol (3,4,5)-trisphosphate (PIP3), and on Days 24 and 28 for collection of biomarkers.
Fold-change from baseline in cell counts, target biomarkers in sputum and blood, and PIP3 were log-transformed and analysed using an analysis of covariance (ANCOVA) model, with treatment, patient, and period as fixed effects, and baseline value as covariate. Changes from baseline in spirometry, forced oscillation and CAT endpoints were analysed using a similar ANCOVA model, but without log transformation. Rescue medication data were analysed using an analysis of variance model, including treatment, period and patient as fixed effects. Other data, including the proportion of days on which patients coughed and the cough VAS results, are presented descriptively only. Further details, including the transcriptomics, mass-spectrometry and Olink proteomics, bioinformatics and multi-omic data integration are in the supplement.
The Resmon PRO FULL device (MGC Diagnostics/Medisoft, St Paul, MN, USA) was used to evaluate the forced oscillometry endpoints. Patients in a sitting position and with their nose clipped supported their cheeks to reduce upper airway shunting while small amplitude pressure stimuli were applied during tidal breathing, with each manoeuvre performed in triplicate. The response of the respiratory system to this stimulation was used to derive respiratory mechanical impedance (Zrs), which comprises resistance (Rrs) and reactance (Xrs). In addition, the small amplitude pressure stimuli was also applied during execution of an expiratory slow vital capacity manoeuvre (SVC) to record inspiratory capacity (IC) and vital capacity (VC).
Central and peripheral airway mechanics were measured using a multi frequency stimulating waveform at 5, 11, and 19 Hz, to derive the following: […]

proteins in sputum = experiment: Tandem mass tag mass spectrometry proteomics in sputum; assay type: in vivo, human; details: FDR < 0.05, mixed effect modelling
Experimental: Sputum samples were weighed and solubilised with sodium dodecyl sulphate and dithiothreitol, and were incubated for 10 min at 95°C. First, quantification was performed by the Bradford Assay, with 50 μg of each sample digested with Trypsin following the S-trap micro protocol; 25 μg of each sample was dried, and reconstituted with TMT10plex (Thermo Scientific) following the manufacturer’s instructions. The 98 samples were divided into eleven TMT10plexes groups; 10 μg of each sample were combined, taking into account the peptide quantification, and after combining samples were desalted.
Samples were analysed with a Thermo Scientific Dionex Ultimate 3000 nano RSLC coupled to a Orbitrap Fusion Lumos mass spectrometer (Thermo Scientific) fitted with nanoESI source. Peptides were separated on a EasySpray (75 µm x 500 mm, 2 μm, 100Å) (Thermo Scientific) heated to 40°C at 300 nL/min. The mass spectrometer was operated in data-dependent acquisition (DDA) mode. […] For the MS3 analyses for TMT quantification, multiple fragment ions from the previous MS2 scan (SPS ions) were co- selected and fragmented by HCD.
Database searches were performed with Proteome Discoverer v2.4 software (Thermo Scientific) using Sequest HT search engine and UniProt Homo Sapiens (2023) and contaminants. […] TMT reporter ions intensities were used for protein quantification. […]

**Q.** Which “Breaths where expiratory flow limitation was present, adjusted mean change from baseline (95% CI)” value [1] does the source give for `C[C@@H](c1oc(=O)c2ccccc2c1-c1cccc(CN2CCN(C)CC2)c1)n1nc(-c2cncc(O)c2)c2c(N)ncnc21` [CHF6523] here?
**A.** Its value is 4.960 (–2.008, 11.928) %.

**Q.** What about the “Breaths where expiratory flow limitation was present, adjusted mean difference CHF6523 vs placebo (95% CI)” value [1] of the same compound?
**A.** The value was 6.482 (–3.182, 16.145); p=0.179%.

**Q.** What about the “Inspiratory capacity, adjusted mean change from baseline (95% CI)” value [1] of the same compound?
**A.** The value was “–0.175 (–0.264, –0.085) (N=26) L”.

**Q.** What about the “Inspiratory capacity, adjusted mean difference CHF6523 vs placebo (95% CI)” value [1] of the same compound?
**A.** The value was “–0.062 (–0.191, 0.066); p=0.320 L”.

**Q.** And the “Mean inspiratory flow, adjusted mean change from baseline (95% CI)” value [1]?
**A.** The value was 0.023 (0.006, 0.041) L/sec.

**Q.** What about the “Reactance at 5 Hz, expiratory, adjusted mean change from baseline (95% CI)” value [1] of the same compound?
**A.** Its value is “–0.336 (–0.801, 0.130) cmH2O/L/sec”.

**Q.** What about the “Reactance at 5 Hz, expiratory, adjusted mean difference CHF6523 vs placebo (95% CI)” value [1] of the same compound?
**A.** Its value is “–0.284 (–0.919, 0.351); p=0.365 cmH2O/L/sec”.

**Q.** And the “Reactance at 5 Hz, inspiratory, adjusted mean change from baseline (95% CI)” value [1]?
**A.** The value was “–0.119 (–0.307, 0.068) cmH2O/L/sec”.

**Q.** What about the “Reactance at 5 Hz, inspiratory, adjusted mean difference CHF6523 vs placebo (95% CI)” value [1] of the same compound?
**A.** Its value is “–0.141 (–0.399, 0.117); p=0.272 cmH2O/L/sec”.

**Q.** What about the “Reactance at 5 Hz, total, adjusted mean change from baseline (95% CI)” value [1] of the same compound?
**A.** Its value is “–0.263 (–0.623, 0.097) cmH2O/L/sec”.

**Q.** What about the “Reactance at 5 Hz, total, adjusted mean difference CHF6523 vs placebo (95% CI)” value [1] of the same compound?
**A.** The value was “–0.237 (–0.729, 0.256); p=0.332 cmH2O/L/sec”.

**Q.** What about the “Reactance at 19 Hz, expiratory, adjusted mean change from baseline (95% CI)” value [1] of the same compound?
**A.** Its value is “–0.025 (–0.226, 0.177) cmH2O/L/sec”.

**Q.** What about the “Reactance at 19 Hz, expiratory, adjusted mean difference CHF6523 vs placebo (95% CI)” value [1] of the same compound?
**A.** Its value is 0.079 (–0.198, 0.357); p=0.563 cmH2O/L/sec.

**Q.** What about the “Reactance at 19 Hz, inspiratory, adjusted mean change from baseline (95% CI)” value [1] of the same compound?
**A.** The value was “–0.113 (–0.257, 0.031) cmH2O/L/sec”.

**Q.** What about the “Reactance at 19 Hz, inspiratory, adjusted mean difference CHF6523 vs placebo (95% CI)” value [1] of the same compound?
**A.** Its value is “–0.072 (–0.270, 0.127); p=0.464 cmH2O/L/sec”.

**Q.** What about the “Reactance at 19 Hz, total, adjusted mean change from baseline (95% CI)” value [1] of the same compound?
**A.** Its value is “–0.058 (–0.229, 0.112) cmH2O/L/sec”.

**Q.** And the “Reactance at 19 Hz, total, adjusted mean difference CHF6523 vs placebo (95% CI)” value [1]?
**A.** The value was 0.027 (–0.208, 0.262); p=0.814 cmH2O/L/sec.

**Q.** What about the “Resistance at 5 Hz minus resistance at 19 Hz, expiratory, adjusted mean change from baseline (95% CI)” value [1] of the same compound?
**A.** Its value is 0.112 (–0.080, 0.305) cmH2O/L/sec.

**Q.** What about the “Resistance at 5 Hz minus resistance at 19 Hz, expiratory, adjusted mean difference CHF6523 vs placebo (95% CI)” value [1] of the same compound?
**A.** Its value is “–0.112 (–0.377, 0.153); p=0.392 cmH2O/L/sec”.

**Q.** And the “Resistance at 5 Hz minus resistance at 19 Hz, inspiratory, adjusted mean change from baseline (95% CI)” value [1]?
**A.** Its value is 0.198 (0.075, 0.321) cmH2O/L/sec.

**Q.** And the “Resistance at 5 Hz minus resistance at 19 Hz, inspiratory, adjusted mean difference CHF6523 vs placebo (95% CI)” value [1]?
**A.** Its value is 0.147 (–0.022, 0.317); p=0.085 cmH2O/L/sec.

**Q.** And the “Resistance at 5 Hz minus resistance at 19 Hz, total, adjusted mean change from baseline (95% CI)” value [1]?
**A.** The value was 0.158 (0.018, 0.299) cmH2O/L/sec.

**Q.** And the “Resistance at 5 Hz minus resistance at 19 Hz, total, adjusted mean difference CHF6523 vs placebo (95% CI)” value [1]?
**A.** Its value is “–0.008 (–0.203, 0.186); p=0.929 cmH2O/L/sec”.

**Q.** And the “Resistance at 5 Hz, expiratory, adjusted mean change from baseline (95% CI)” value [1]?
**A.** The value was 0.112 (–0.149, 0.373) cmH2O/L/sec.

**Q.** And the “Resistance at 5 Hz, expiratory, adjusted mean difference CHF6523 vs placebo (95% CI)” value [1]?
**A.** The value was “–0.118 (–0.485, 0.248); p=0.513 cmH2O/L/sec”.

**Q.** What about the “Resistance at 5 Hz, inspiratory, adjusted mean change from baseline (95% CI)” value [1] of the same compound?
**A.** The value was 0.216 (0.066, 0.366) cmH2O/L/sec.

**Q.** And the “Resistance at 5 Hz, inspiratory, adjusted mean difference CHF6523 vs placebo (95% CI)” value [1]?
**A.** Its value is 0.057 (–0.150, 0.264); p=0.574 cmH2O/L/sec.

**Q.** And the “Resistance at 5 Hz, total, adjusted mean change from baseline (95% CI)” value [1]?
**A.** Its value is 0.172 (–0.013, 0.356) cmH2O/L/sec.

**Q.** What about the “Resistance at 5 Hz, total, adjusted mean difference CHF6523 vs placebo (95% CI)” value [1] of the same compound?
**A.** Its value is “–0.051 (–0.309, 0.207); p=0.686 cmH2O/L/sec”.

**Q.** What about the “Resistance at 19 Hz, expiratory, adjusted mean change from baseline (95% CI)” value [1] of the same compound?
**A.** Its value is “–0.002 (–0.179, 0.176) cmH2O/L/sec”.

**Q.** What about the “Resistance at 19 Hz, expiratory, adjusted mean difference CHF6523 vs placebo (95% CI)” value [1] of the same compound?
**A.** Its value is “–0.009 (–0.261, 0.242); p=0.939 cmH2O/L/sec”.

**Q.** What about the “Resistance at 19 Hz, inspiratory, adjusted mean change from baseline (95% CI)” value [1] of the same compound?
**A.** The value was 0.021 (–0.094, 0.136) cmH2O/L/sec.

**Q.** What about the “Resistance at 19 Hz, inspiratory, adjusted mean difference CHF6523 vs placebo (95% CI)” value [1] of the same compound?
**A.** The value was “–0.086 (–0.245, 0.072); p=0.272 cmH2O/L/sec”.

**Q.** What about the “Resistance at 19 Hz, total, adjusted mean change from baseline (95% CI)” value [1] of the same compound?
**A.** The value was 0.016 (–0.125, 0.156) cmH2O/L/sec.

**Q.** What about the “Resistance at 19 Hz, total, adjusted mean difference CHF6523 vs placebo (95% CI)” value [1] of the same compound?
**A.** The value was “–0.040 (–0.236, 0.157); p=0.683 cmH2O/L/sec”.

**Q.** And the “Resonance frequency, adjusted mean change from baseline (95% CI)” value [1]?
**A.** Its value is 0.167 (–0.960, 1.293) Hz.

**Q.** What about the “Resonance frequency, adjusted mean difference CHF6523 vs placebo (95% CI)” value [1] of the same compound?
**A.** Its value is 0.106 (–1.434, 1.646); 0.888 Hz.

**Q.** And the “Respiratory rate, adjusted mean change from baseline (95% CI)” value [1]?
**A.** Its value is 0.268 (–0.359, 0.895) breaths/min.

**Q.** What about the “Respiratory rate, adjusted mean difference CHF6523 vs placebo (95% CI)” value [1] of the same compound?
**A.** The value was 0.784 (–0.078, 1.646); 0.073 breaths/min.

**Q.** And the “Tidal expiratory flow limitation, adjusted mean change from baseline (95% CI)” value [1]?
**A.** The value was 0.214 (–0.130, 0.557) cmH2O/L/sec.

**Q.** What about the “Tidal expiratory flow limitation, adjusted mean difference CHF6523 vs placebo (95% CI)” value [1] of the same compound?
**A.** The value was 0.111 (–0.359, 0.582); p=0.630 cmH2O/L/sec.

**Q.** What about the “Tidal volume, adjusted mean change from baseline (95% CI)” value [1] of the same compound?
**A.** The value was 0.003 (–0.029, 0.036) L.

**Q.** And the “Tidal volume, adjusted mean difference CHF6523 vs placebo (95% CI)” value [1]?
**A.** Its value is 0.011 (–0.034, 0.056); p=0.620 L.

**Q.** What about the “Vital capacity, adjusted mean change from baseline (95% CI)” value [1] of the same compound?
**A.** Its value is “–0.083 (–0.243, 0.076) (N=26) L”.

**Q.** What about the “Vital capacity, adjusted mean difference CHF6523 vs placebo (95% CI)” value [1] of the same compound?
**A.** The value was “–0.018 (–0.243, 0.207); p=0.871 L”.

**Q.** What about the “CHF6523–placebo difference in inspiratory flow” value ([1]; p=0.015) of the same compound?
**A.** The value was 29 mL/s.

**Q.** What about the “Mean inspiratory flow, adjusted mean difference CHF6523 vs placebo (95% CI)” value ([1]; p=0.015) of the same compound?
**A.** The value was 0.029 (0.006, 0.052); p=0.015 L/sec.

**Q.** And the “Proteins significantly modulated by treatment, of the 413 evaluated” value (proteins in sputum)?
**A.** Its value is “only BPI fold-containing family B member 1 (BPIFB1) was significantly modulated by treatment”.
